Results on two molecules are retold here after patent publication US20250276031A1, “PRODRUGS AS SELECTIVE ANTIBIOTICS AGAINST COLIBACTIN-PRODUCING E. COLI” (New York University in Abu Dhabi Corporation, priority 2024, published 2025).

The subject of experiment [1] is E. coli C41 DE3 pet29b_clbP pSEVA631_mGFP and E. coli C41 DE3 pet29b pSEVA_mScarlet-i. Kind of experiment: Co-culture competition assay with PXCNA (mGFP / mScarlet-i fluorescence, OD600). Type of experiment: cell-based. Here is the method: PXCNA activity was measured via fluorescence (see FIGS. 18 and 19).
A co-culture assay was performed. Overnight cultures of E. coli C41 DE3 pet29b_cIbP pSEVA631_mGFP and E. coli C41 DE3 pet29b pSEVA_mScarlet-i were prepared separately each from a single colony. Then 1:100 dilution of each culture into the same LB media well supplemented with kanamycin (50 μg/ml) and gentamycin (15 μg/ml) was performed. […] Samples were fed with PXCNA with a final concentration of 25 mg/L.

Experiment [2] concerns E. coli expressing the ClbP protease. Kind of experiment: Growth curves with PXCNA. Type of experiment: cell-based. Conditions: crude extract, 10, 25, 50 mg/L; IPTG induced; 22° C., 24 hrs, OD600. The method, then:
Growth curves made using PXCNA. Briefly, a single colony from E. coli strain C41(DE3)_ΔacrABpET-29b clbP strain was inoculated into LB medium supplemented with kanamycin (50 μg/ml). This culture was grown overnight at 37° C. while shaking at 200 RPM. 1:100 dilution of overnight culture into fresh LB medium supplemented with kanamycin (50 μg/ml) was performed. Samples were induced with IPTG (0.5 mM). A crude extract of PXCNA prepared in methanol (1 mg/ml). The final concentration in samples was 50 mg/L, 25 mg/L and 10 mg/L. Samples were incubated at 22° C. for 24 hrs and OD600 was measured using TecanSpark.

For experiment [3], the system named is Escherichia coli ribosome. The settings on record: comparison value, no own experiment described; read-out: IC50 of chloramphenicol given for comparison; cited from earlier work.

On to `CC(C)CCCC(=O)N[C@H](CC(N)=O)C(=O)N[C@@H](CCCN=C(N)N)[C@H](O)[C@H](O)C(=O)N[C@@H](CC(C)C)[C@@H]1Cc2cccc(O)c2C(=O)O1` [PXCNA, prexenocoumacin], for which, in experiment [1] (PXCNA 25 mg/L, vanillic acid, with or without IPTG), the “mGFP and mScarlet-i fluorescence in co-culture” value is reported as “low level of fluorescence observed for both”. Also, the “OD600 growth of E. coli C41 DE3 pet29b_clbP pSEVA631_mGFP” value in experiment [1] (only vanillic acid and PXCNA added, no IPTG) is “growth did not appear inhibited”. Besides, the “selective killing of ClbP expressing E. coli” value in experiment [2] is listed as “kills selectively E. coli expressing the ClbP protease”.

The term IC50 denotes the concentration that gives 50% inhibition. As to `O=C(N[C@H](CO)[C@H](O)c1ccc([N+](=O)[O-])cc1)C(Cl)Cl` [chloramphenicol], the IC50 in experiment [3] is 2800 nM.
